# Source: paper PMC6297231 (Nature Communications, 2018)
# Like-named read-outs stand apart in the source and are kept apart here.
# Assays:
# [1] = tested on: NCI-H23 cells depleted of Bak; assay: Caspase-3/7 activation after Bak siRNA; format: cell-based; conditions: Bak siRNA 72 h, then 6 h treatment
# Method: NCI-H23 cells were trypsinized and resuspended in growth medium. SiRNA targeting Bak (cat#S1881, ThermoFisher Scientific) or non-targeting siRNA (cat#4390847, ThermoFisher Scientific), and Lipofectamine RNAiMAX (ThermoFisher Scientific) were mixed in OPTIMEM and incubated at room temperature for 20 min. Next, cell suspension was added to each siRNA master mix, dispensed into each well of a 96-well plate and incubated for 72 h.
# MOLM-13 leukemic cells = assay: MOLM-13 disseminated AML model; format: in vivo, mice; conditions: venetoclax 100 mg kg^−1 p.o. daily, AZD5991 60 mg kg^−1 i.v. weekly, after 10 days
# Excerpt: MOLM-13: These studies complied with all relevant ethical regulations described in the guidelines established by GV-SOLAS Institutional Animal Care and Use Committee. Female CIEA-NOG mice were purchased from Taconic. Mice between 5 and 8 weeks old were tail vein injected with five million MOLM-13 cells. Treatment started 3 days after implantation. AZD5991, venetoclax, and vehicle were formulated and administered as mentioned above. Bone marrow and peripheral blood were collected 10 days post-treatment initiation, followed by red cell lysis (ACK lysis buffer), washes with FC buffer (PBS + 2% FCS) and cell staining with AquaZombie live/dead stain (cat#423102, Biolegend) containing antibodies against human CD45 (cat#564105, BDBiosciences) and human HLA-ABC (cat#561346, BDBiosciences) or isotype controls (mIgG1 cat#552834, BDBiosciences; mIgG1 cat#561504, BDBiosciences). Samples were washed with FC buffer and data acquired on an Attune NXT cytometer and analyzed using FlowJo software. Gating was performed on single/live/FCS vs. SSC/HLA-ABC vs. hCD45 double positive cells (Supplementary Figure 8).
# KMS12BM = assay: Cell viability assay; format: cell-based; conditions: Homo sapiens, KMS-12-BM, 24 h; KMS12BM (MM); read-out: AZD5991 24h GI50
# NCI-H929 = assay: Cell viability assay; format: cell-based; conditions: Homo sapiens, 24 h; NCI-H929 (MM); read-out: AZD5991 24h GI50
# Method: (§1) Cells were plated at 3000 cells/well in 384-well white plates in corresponding cell growth media. […] Caspase-3/7 activation was subsequently determined using a Caspase-Glo 3/7 Reagent (Promega) and viability was assayed using the CellTiter-Glo Reagent (Promega) as described in manufacturer’s instructions. Dose–response curves for caspase-3/7 activation and viability were plotted and analyzed (including EC50 and GI50 determination) using GraphPad Prism.
# RPMI8226 = assay: Cell viability assay; format: cell-based; conditions: Homo sapiens, RPMI-8226, 24 h; RPMI8226 (MM); read-out: AZD5991 24h GI50
# Method: as §1
# AMO1 = assay: Cell viability assay; format: cell-based; conditions: Homo sapiens, 24 h; AMO1 (MM); read-out: AZD5991 24h GI50
# Method: as §1
# Nomo1 = assay: Cell viability assay; format: cell-based; conditions: Homo sapiens, NOMO-1, 24 h; Nomo1 (AML); read-out: AZD5991 24h GI50
# Method: as §1
# KG1 = assay: Cell viability assay; format: cell-based; conditions: Homo sapiens, KG-1, 24 h; KG1 (AML); read-out: AZD5991 24h GI50
# Method: as §1
# PL21 = assay: Cell viability assay; format: cell-based; conditions: PL-21, 24 h; PL21 (AML); read-out: AZD5991 24h GI50
# Method: as §1
# GRANTA519 = assay: Cell viability assay; format: cell-based; conditions: Homo sapiens, Granta-519, 24 h; GRANTA519 (NHL); read-out: AZD5991 24h GI50
# Method: as §1
# JVM2 = assay: Cell viability assay; format: cell-based; conditions: Homo sapiens, JVM-2, 24 h; JVM2 (NHL); read-out: AZD5991 24h GI50
# Method: as §1
# MWCL1 = assay: Cell viability assay; format: cell-based; conditions: 24 h; MWCL1 (NHL); read-out: AZD5991 24h GI50
# Method: as §1
# OCILY3 = assay: Cell viability assay; format: cell-based; conditions: Homo sapiens, OCI-Ly3, 24 h; OCILY3 (NHL); read-out: AZD5991 24h GI50
# Method: as §1
# Sudhl10 = assay: Cell viability assay; format: cell-based; conditions: Homo sapiens, SU-DHL10, 24 h; Sudhl10 (NHL); read-out: AZD5991 24h GI50
# Method: as §1
# DMS114 = assay: Cell viability assay; format: cell-based; conditions: Homo sapiens, DMS-114, 24 h; DMS114 (Lung); read-out: AZD5991 24h GI50
# Method: as §1
# H196 = assay: Cell viability assay; format: cell-based; conditions: NCI-H196, 24 h; H196 (Lung); read-out: AZD5991 24h GI50
# Method: as §1
# H1975 = assay: Cell viability assay; format: cell-based; conditions: Homo sapiens, NCI-H1975, 24 h; H1975 (Lung); read-out: AZD5991 24h GI50
# Method: as §1
# MEWO = assay: Cell viability assay; format: cell-based; conditions: Homo sapiens, 24 h; MEWO (Skin); read-out: AZD5991 24h GI50
# Method: as §1
# WM2664 = assay: Cell viability assay; format: cell-based; conditions: Homo sapiens, WM 266-4, 24 h; WM2664 (Skin); read-out: AZD5991 24h GI50
# Method: as §1
# 5637 = assay: Cell viability assay; format: cell-based; conditions: 24 h; 5637 (Urology); read-out: AZD5991 24h GI50
# Method: as §1
# LnCAP = assay: Cell viability assay; format: cell-based; conditions: Homo sapiens, 24 h; LnCAP (Urology); read-out: AZD5991 24h GI50
# Method: as §1
# MOLM13 = assay: Caspase-3/7 activation assay; format: cell-based; conditions: Homo sapiens, MOLM-13, 6 h
# Method: as §1
# HEL92.1.7 = assay: Caspase-3/7 activation assay; format: cell-based; conditions: Homo sapiens, HEL 92.1.7, 6 h
# Method: as §1
# [2] = tested on: NCI-H23 cells with enhanced expression of Bcl-xL; assay: Cell death in NCI-H23 with doxycycline-inducible Bcl-xL
# Excerpt: The lentiviral plasmid pTRIPZ-FLAG-BCL-XL was used for generation of NCI-H23 cells stably expressing doxycyline-inducible Bcl-xL. To produce viruses, the construct of interest was co-transfected into HEK293T cells with a plasmid encoding the packaging viruses (pPACKH1 Lentivector Packaging Kit, cat#LV500A1 SystemBioscience) using Lipofectamine transfection reagent (ThermoFisher Scientific). The lentiviruses were harvested, filtered, and used to infect target cells following standard procedures. Transduced cells were then subject to puromycin selection for 3 weeks before evaluation in apoptosis and cell proliferation assays.
# (b) NCI-H23 cells stably expressing doxycycline-inducible Bcl-xL were treated with
# determined using CellTiter Glo and GraphPad Prism for data analysis. Data shown is the average of 2 experiments.
structure (smiles),measurement,setting,value
"Cc1c2c(nn1C)CSCc1cc(n(C)n1)CSc1cc(c3ccccc3c1)OCCCc1c(C(=O)O)n(C)c3c-2c(Cl)ccc13 (atropisomer, axis not shown; (Ra)) [(Ra)-7]",caspase-3/7 activation and cell death,[1],confers resistance
same,percentage of HLA-ABC+ hCD45+ leukemic cells in peripheral blood vs. vehicle,MOLM-13 leukemic cells,significantly reduced
same,percentage of leukemic cells in bone marrow,MOLM-13 leukemic cells,reduced
same,GI50,KMS12BM,0.015 µM
same,GI50,NCI-H929,0.053 µM
same,GI50,RPMI8226,0.055 µM
same,GI50,AMO1,0.129 µM
same,GI50,Nomo1,0.021 µM
same,GI50,KG1,0.291 µM
same,GI50,PL21,0.403 µM
same,GI50,GRANTA519,19.3 µM
same,GI50,JVM2,0.547 µM
same,GI50,MWCL1,1.65 µM
same,GI50,OCILY3,6.19 µM
same,GI50,Sudhl10,0.01 µM
same,GI50,DMS114,0.219 µM
same,GI50,H196,> 30 µM
same,GI50,H1975,17.6 µM
same,GI50,MEWO,7.67 µM
same,GI50,WM2664,13.2 µM
same,GI50,5637,28 µM
same,GI50,LnCAP,13.4 µM
same,EC50,"MOLM13; read-out: 6h caspase EC50, MOLM13, single agent",0.108 µM
same,EC50,"MOLM13; read-out: AZD5991 6h EC50, MOLM13 (AML), caspase 3/7 activation",0.063 µM
same,EC50,"HEL92.1.7; read-out: 6h caspase EC50, HEL9217, single agent",> 0.333 µM
same,EC50,"HEL92.1.7; read-out: AZD5991 6h EC50, HEL92.1.7 (AML), caspase 3/7 activation",0.564 µM
same,induced cell death,[2],resistance
